Source: US20240307382A1, “MODULATORS OF THE INTEGRATED STRESS PATHWAY” (Calico Life Sciences LLC, priority 2017, published 2024)
pEC50: −log10 of the molar value.

What follows are molecules tested on HEK293T cells carrying the ATF4 luciferase reporter (assay: ATF4-Luc assay (ATF4 luciferase reporter, tunicamycin-treated cells)). Conditions: Homo sapiens, HEK-293T, 1 μg/mL tunicamycin, 7 hours.
Type: cell-based
Protocol: In order to test exemplary compounds of the invention in a cellular context, a stable VWMD cell line was first constructed. The ATF4 reporter was prepared by fusing the human full-length ATF4 5′-UTR (NCBI Accession No. BC022088.2) in front of the firefly luciferase (FLuc) coding sequence lacking the initiator methionine as described in Sidrauski et al (eLife 2013). The construct was used to produce recombinant retroviruses using standard methods and the resulting viral supermatant was used to transduce ITEK293T cells, which were then subsequently selected with puromycin to generate a stable cell line.
HTEK293T cells carrying the ATF4 luciferase reporter were plated on polylysine coated 384-well plates (Greiner Bio-one) at 30,000 cells per well. Cells were treated the next day with 1 μg/mL tunicamycin and 200 nM of a compound of Formula (I) for 7 hours. Luminescence was measured using One Glo (Promega) as specified by the manufacturer. Cells were maintained in DMEM with L-glutamine supplemented with 10% heat-inactivated FBS (Gibco) and Antibiotic-Antimycotic solution (Gibco).
Table 2 below summarizes the EC50 data obtained using the ATF4-Luc assay for exemplary compounds of the invention.

O=C(COc1ccc(Cl)c(F)c1)NC12CCC(NC(=O)c3coc(C(F)(F)F)n3)(CC1)C[C@@H]2O [Compound 1004, N-{(3S)-4-[2-(4-chloro-3-fluorophenoxy)acetamido]-3-hydroxybicyclo[2.2.2]octan-1-yl}-2-(trifluoromethyl)-1,3-oxazole-4-carboxamide] and O=C(COc1ccc(Cl)c(Cl)c1)NC12CCC(NC(=O)c3coc(C(F)(F)F)n3)(CC1)C[C@@H]2O [Compound 1009, N-{(3S)-4-[2-(3,4-dichlorophenoxy)acetamido]-3-hydroxybicyclo[2.2.2]octan-1-yl}-2-(trifluoromethyl)-1,3-oxazole-4-carboxamide] cannot be ordered by pEC50: > 7.30 for the first, > 7.30 for the second.

O=C(COc1ccc(Cl)c(Cl)c1)NC12CCC(NC(=O)c3cnc4cc(F)ccc4n3)(CC1)C[C@@H]2O [Compound 1005, N-{(3S)-4-[2-(3,4-dichlorophenoxy)acetamido]-3-hydroxybicyclo[2.2.2]octan-1-yl}-6-fluoroquinoxaline-2-carboxamide] and O=C(COc1ccc(Cl)c(F)c1)NC12CCC(NC(=O)c3cnc4cc(F)ccc4n3)(CC1)C[C@@H]2O [Compound 1006, N-{(3S)-4-[2-(4-chloro-3-fluorophenoxy)acetamido]-3-hydroxybicyclo[2.2.2]octan-1-yl}-6-fluoroquinoxaline-2-carboxamide] cannot be ordered by pEC50: > 7.30 for the first, > 7.30 for the second.

Cn1nc(C(=O)NC23CCC(NC(=O)COc4ccc(Cl)c(Cl)c4)(CC2)[C@@H](O)C3)cc1C(F)(F)F [Compound 1007, N-{(3S)-4-[2-(3,4-dichlorophenoxy)acetamido]-3-hydroxybicyclo[2.2.2]octan-1-yl}-1-methyl-5-(trifluoromethyl)-1H-pyrazole-3-carboxamide] and O=C(COc1ccc(Cl)c(Cl)c1)NC12CCC(NC(=O)c3cccc(C(F)(F)F)n3)(CC1)C[C@@H]2O [Compound 1027, N-{(3S)-4-[2-(3,4-dichlorophenoxy)acetamido]-3-hydroxybicyclo[2.2.2]octan-1-yl}-6-(trifluoromethyl)pyridine-2-carboxamide] cannot be ordered by pEC50: > 7.30 for the first, > 7.30 for the second.

O=C(COc1ccc(Cl)c(Cl)c1)NC12CCC(NC(=O)c3cnc4ccccc4n3)(CC1)C[C@@H]2O [Compound 1008, N-{(3S)-4-[2-(3,4-dichlorophenoxy)acetamido]-3-hydroxybicyclo[2.2.2]octan-1-yl}quinoxaline-2-carboxamide] and O=C(COc1ccc(Cl)c(Cl)c1)NC12CCC(NC(=O)c3ccccn3)(CC1)C[C@@H]2O [Compound 1026, N-{(3S)-4-[2-(3,4-dichlorophenoxy)acetamido]-3-hydroxybicyclo[2.2.2]octan-1-yl}pyridine-2-carboxamide] cannot be ordered by pEC50: > 7.30 for the first, > 7.30 for the second.

Cn1nc(C(F)F)cc1C(=O)NC12CCC(NC(=O)COc3ccc(Cl)c(Cl)c3)(CC1)[C@@H](O)C2 [Compound 1010, N-{(3S)-4-[2-(3,4-dichlorophenoxy)acetamido]-3-hydroxybicyclo[2.2.2]octan-1-yl}-3-(difluoromethyl)-1-methyl-1H-pyrazole-5-carboxamide] and CC(C)c1cc(C(=O)NC23CCC(NC(=O)COc4ccc(Cl)c(Cl)c4)(CC2)[C@@H](O)C3)on1 [Compound 1012, N-{(3S)-4-[2-(3,4-dichlorophenoxy)acetamido]-3-hydroxybicyclo[2.2.2]octan-1-yl}-3-(propan-2-yl)-1,2-oxazole-5-carboxamide] cannot be ordered by pEC50: > 7.30 for the first, > 7.30 for the second.

First: O=C(COc1ccc(Cl)c(Cl)c1)NC12CCC(NC(=O)c3cnc(C(F)(F)F)cn3)(CC1)C[C@@H]2O [Compound 1011, N-{(3S)-4-[2-(3,4-dichlorophenoxy)acetamido]-3-hydroxybicyclo[2.2.2]octan-1-yl}-5-(trifluoromethyl)pyrazine-2-carboxamide]
Second: O=C(COc1ccc(Cl)c(Cl)c1)NC12CCC(NC(=O)c3ccc(C(F)(F)F)cn3)(CC1)C[C@@H]2O [Compound 1031, N-{(3S)-4-[2-(3,4-dichlorophenoxy)acetamido]-3-hydroxybicyclo[2.2.2]octan-1-yl}-5-(trifluoromethyl)pyridine-2-carboxamide]
The pEC50 of the first is lower: 6.60 to 7.30 for the first, > 7.30 for the second.

O=C(COc1ccc(Cl)c(Cl)c1)NC12CCC(NC(=O)c3cc(C4CC4)no3)(CC1)C[C@@H]2O [Compound 1013, 3-cyclopropyl-N-{(3S)-4-[2-(3,4-dichlorophenoxy)acetamido]-3-hydroxybicyclo[2.2.2]octan-1-yl}-1,2-oxazole-5-carboxamide] and O=C(COc1ccc(Cl)c(Cl)c1)NC12CCC(NC(=O)c3cc(C(F)(F)F)no3)(CC1)C[C@@H]2O [Compound 1017, N-{(3S)-4-[2-(3,4-dichlorophenoxy)acetamido]-3-hydroxybicyclo[2.2.2]octan-1-yl}-3-(trifluoromethyl)-1,2-oxazole-5-carboxamide] cannot be ordered by pEC50: > 7.30 for the first, > 7.30 for the second.

First: O=C(COc1ccc(Cl)c(Cl)c1)NC12CCC(NC(=O)c3ccc(N4CCCC4)cn3)(CC1)C[C@@H]2O [Compound 1014, N-{(3S)-4-[2-(3,4-dichlorophenoxy)acetamido]-3-hydroxybicyclo[2.2.2]octan-1-yl}-5-(pyrrolidin-1-yl)pyridine-2-carboxamide]
Second: Cc1ccc(C(=O)NC23CCC(NC(=O)COc4ccc(Cl)c(Cl)c4)(CC2)[C@@H](O)C3)nc1 [Compound 1029, N-{(3S)-4-[2-(3,4-dichlorophenoxy)acetamido]-3-hydroxybicyclo[2.2.2]octan-1-yl}-5-methylpyridine-2-carboxamide]
The pEC50 of the first is lower: < 5.70 for the first, > 7.30 for the second. The second is the more potent here.

Cc1cc(C(=O)NC23CCC(NC(=O)COc4ccc(F)c(Cl)c4)(CC2)[C@@H](O)C3)on1 [Compound 1015, N-{(3S)-4-[2-(3-chloro-4-fluorophenoxy)acetamido]-3-hydroxybicyclo[2.2.2]octan-1-yl}-3-methyl-1,2-oxazole-5-carboxamide] and Cc1cc(C(=O)NC23CCC(NC(=O)COc4ccc(Cl)cc4)(CC2)[C@@H](O)C3)on1 [Compound 1016, N-{(3S)-4-[2-(4-chlorophenoxy)acetamido]-3-hydroxybicyclo[2.2.2]octan-1-yl}-3-methyl-1,2-oxazole-5-carboxamide] fall in the same range of pEC50: 6.60 to 7.30 for the first, 6.60 to 7.30 for the second.

O=C(COc1ccc(Cl)c(F)c1)NC12CCC(NC(=O)c3cc(-c4ccccc4)no3)(CC1)C[C@@H]2O [Compound 1018, N-{(3S)-4-[2-(4-chloro-3-fluorophenoxy)acetamido]-3-hydroxybicyclo[2.2.2]octan-1-yl}-3-phenyl-1,2-oxazole-5-carboxamide] and Cn1nc(-c2ccccc2)cc1C(=O)NC12CCC(NC(=O)COc3ccc(Cl)c(F)c3)(CC1)[C@@H](O)C2 [Compound 1020, N-{(3S)-4-[2-(4-chloro-3-fluorophenoxy)acetamido]-3-hydroxybicyclo[2.2.2]octan-1-yl}-1-methyl-3-phenyl-1H-pyrazole-5-carboxamide] cannot be ordered by pEC50: > 7.30 for the first, > 7.30 for the second.

Compared with CCc1c(C(=O)NC23CCC(NC(=O)COc4ccc(Cl)c(F)c4)(CC2)[C@@H](O)C3)nn(C)c1-c1ccccc1 [Compound 1019, N-{(3S)-4-[2-(4-chloro-3-fluorophenoxy)acetamido]-3-hydroxybicyclo[2.2.2]octan-1-yl}-4-ethyl-1-methyl-5-phenyl-1H-pyrazole-3-carboxamide], Cc1oc(-c2ccccc2)cc1C(=O)NC12CCC(NC(=O)COc3ccc(Cl)c(F)c3)(CC1)[C@@H](O)C2 [Compound 1021, N-{(3S)-4-[2-(4-chloro-3-fluorophenoxy)acetamido]-3-hydroxybicyclo[2.2.2]octan-1-yl}-2-methyl-5-phenylfuran-3-carboxamide] is higher in pEC50: 5.70 to 6.00 for the first, > 7.30 for the second. The second is the more potent here.

O=C(COc1ccc(Cl)c(F)c1)NC12CCC(NC(=O)c3cc(-c4ccccc4)[nH]n3)(CC1)C[C@@H]2O [Compound 1022, N-{(3S)-4-[2-(4-chloro-3-fluorophenoxy)acetamido]-3-hydroxybicyclo[2.2.2]octan-1-yl}-5-phenyl-1H-pyrazole-3-carboxamide] and O=C(COc1ccc(Cl)c(Cl)c1)NC12CCC(NC(=O)c3cccc(O)n3)(CC1)C[C@@H]2O [Compound 1025, N-{(3S)-4-[2-(3,4-dichlorophenoxy)acetamido]-3-hydroxybicyclo[2.2.2]octan-1-yl}-6-hydroxypyridine-2-carboxamide] cannot be ordered by pEC50: > 7.30 for the first, > 7.30 for the second.

Compared with Cn1ncc2cc(C(=O)NC34CC(NC(=O)COc5ccc(Cl)c(F)c5)(C3)C4)ccc21 [Compound 1023, N-{3-[2-(4-chloro-3-fluorophenoxy)acetamido]bicyclo[1.1.1]pentan-1-yl}-1-methyl-1H-indazole-5-carboxamide], CC(C)Oc1ccc(C(=O)NC23CCC(NC(=O)COc4ccc(Cl)c(Cl)c4)(CC2)[C@@H](O)C3)nc1 [Compound 1028, N-{(3S)-4-[2-(3,4-dichlorophenoxy)acetamido]-3-hydroxybicyclo[2.2.2]octan-1-yl}-5-[(propan-2-yl)oxy]pyridine-2-carboxamide] is higher in pEC50: 6.00 to 6.60 for the first, 6.60 to 7.30 for the second. The second is the more potent here.

First: O=C(COc1ccc(Cl)c(Cl)c1)NC12CCC(NC(=O)c3ccc(OC(F)(F)F)cn3)(CC1)C[C@@H]2O [Compound 1024, N-{(3S)-4-[2-(3,4-dichlorophenoxy)acetamido]-3-hydroxybicyclo[2.2.2]octan-1-yl}-5-(trifluoromethoxy)pyridine-2-carboxamide]
Second: O=C(COc1ccc(Cl)c(Cl)c1)NC12CCC(NC(=O)c3cc(C(F)(F)F)ccn3)(CC1)C[C@@H]2O [Compound 1030, N-{(3S)-4-[2-(3,4-dichlorophenoxy)acetamido]-3-hydroxybicyclo[2.2.2]octan-1-yl}-4-(trifluoromethyl)pyridine-2-carboxamide]
The pEC50 of the first is higher: > 7.30 for the first, 6.60 to 7.30 for the second. The first is the more potent here.
